Literature values, collected in US20070041998A1, “Use of alum and a th1 immune response inducing adjuvant for enhancing immune responses” (Intercell AG, priority 2003, published 2007).
Where no end group is shown, it is not given here.

Tests used:
[1] = tested on: human neutrophils; settings: via cell surface calreticulin
[2] = tested on: Staphylococcus aureus; settings: Staphylococcus aureus-infected mice

## KLKLLLLLKLK-NH2 [synthetic antimicrobial peptide (Nakajima 1997; Cho 1999)]
[1]
  production of superoxide anion (O2−): activated to produce the superoxide anion
[2]
  chemotherapeutic activity: significant chemotherapeutic activity
